In patent US7829565B2, “Indole derivatives as serotonin reuptake inhibitors” (Merck Patent GmbH, priority 2003, dated 2010):

Assays:
serotonin reuptake = biological target: T1, serotonin reuptake (Rattus norvegicus, UniProt P31652); experiment: serotonin reuptake inhibition (SSRI); assay type: biochemical
T1 construct: synaptosomal serotonin reuptake (Sherman et al., Life Sci. 23 (1978), 1863-1870); from tissue
Text: (§1) In particular, they inhibit 5-HT reuptake. […] Due to a 5-HT-agonistic action and 5-HT reuptake inhibition, serotonin remains in the synaptic cleft for longer and the serotonin action is reinforced. Active ingredients having such properties are therefore particularly suitable as antidepressants and anxiolytics. The compounds of the formula I inhibit the binding of tritiated serotonin ligands to hippocampal receptors (Cossery et al., European J. Pharmacol. 140 (1987), 143-155) and synaptosomal serotonin reuptake (Sherman et al., Life Sci. 23 (1978), 1863-1870).
For in-vitro determination of 5-HT reuptake inhibition, synaptosomal reuptake inhibition (Wong et al., Neuropsycho-pharmacology 8 (1993), 22-33) and p-chloroamphetamine antagonism (Fuller et al. J. Pharmacol. Exp. Ther. 212 (1980), 115-119) is measured. Serotonin reuptake inhibition can in addition also be investigated with the aid of the Waldmeier method ex vivo in the brain tissue of mice (European J. Pharmacol. 1977, 46, 387-92), and by microdialysis, which is described by DiChiara (Trends in Pharmacol. Sci., 11 (1990), 116-121). To this end, a physiological solution is perfused through a microdialysis container implanted into a rat brain. During this perfusion, the solution takes up the neurotransmitters liberated in the brain and is subsequently analysed. […]

5-HT1A receptors = biological target: T2, 5-HT1A receptors (Rattus norvegicus, UniProt P19327); experiment: 5-HT1A receptor binding test
T2 construct: from tissue; host or cells: hippocampus (membranes)
T2 sequence (P19327 1-422): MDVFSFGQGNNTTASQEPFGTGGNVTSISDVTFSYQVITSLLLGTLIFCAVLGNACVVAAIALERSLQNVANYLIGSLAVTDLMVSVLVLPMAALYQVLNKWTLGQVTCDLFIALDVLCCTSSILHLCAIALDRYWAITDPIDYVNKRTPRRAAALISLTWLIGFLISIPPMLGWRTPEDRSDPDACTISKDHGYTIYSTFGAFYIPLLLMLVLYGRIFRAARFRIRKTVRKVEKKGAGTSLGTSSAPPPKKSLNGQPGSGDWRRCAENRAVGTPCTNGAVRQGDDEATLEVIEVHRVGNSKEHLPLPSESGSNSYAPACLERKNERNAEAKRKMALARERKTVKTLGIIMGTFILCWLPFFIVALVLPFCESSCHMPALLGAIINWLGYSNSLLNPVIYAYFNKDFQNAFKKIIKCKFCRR
Text: as §1
The 5-HT1A-agonistic action can be measured in vitro, for example, with the aid of the (serotonin) binding test, as described by Matzen et al. (J. Med. Chem., 43 (2000), 1149-57), in particular on page 1156 with reference to Eur. J. Pharmacol., 140 (1987), 143-155. In addition, the 5-HT1A-agonistic action can be measured with the aid of the GTPgammaS test described by Newman-Tancredi et al. (Eur. J. Pharmacol. 307 (1996), 107-11).
Many of the compounds synthesised have nanomolar affinity to the 5-HT1A receptors and nanomolar reuptake inhibition of serotonin. • 5-{4-[4-(5-Cyano-2-oxo-2,3-dihydro-1H-indol-3-yl)butyl]piperazin-1-yl}-benzofuran-2-carboxamide

T1 sequence (P31652 whole entry): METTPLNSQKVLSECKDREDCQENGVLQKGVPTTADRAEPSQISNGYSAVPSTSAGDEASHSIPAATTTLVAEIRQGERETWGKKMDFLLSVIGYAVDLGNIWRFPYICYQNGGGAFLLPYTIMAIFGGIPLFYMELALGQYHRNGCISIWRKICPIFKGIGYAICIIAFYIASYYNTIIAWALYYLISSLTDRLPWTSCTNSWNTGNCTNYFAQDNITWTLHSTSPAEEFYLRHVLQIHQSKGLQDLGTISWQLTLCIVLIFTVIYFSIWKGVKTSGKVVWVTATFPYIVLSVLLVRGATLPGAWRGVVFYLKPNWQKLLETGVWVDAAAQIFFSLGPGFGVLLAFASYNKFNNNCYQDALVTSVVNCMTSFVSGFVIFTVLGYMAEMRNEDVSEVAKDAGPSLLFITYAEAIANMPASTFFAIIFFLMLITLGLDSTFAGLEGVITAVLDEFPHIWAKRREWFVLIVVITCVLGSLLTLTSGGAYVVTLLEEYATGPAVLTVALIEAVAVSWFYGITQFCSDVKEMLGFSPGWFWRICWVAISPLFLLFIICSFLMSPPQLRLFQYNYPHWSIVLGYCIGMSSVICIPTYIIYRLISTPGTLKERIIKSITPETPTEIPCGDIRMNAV

Row | IC50 (serotonin reuptake) | IC50 (5-HT1A receptors) | Structure (SMILES)
1 | 2.9 nM | 1.7 nM | N#Cc1ccc2c(c1)C(CCCCN1CCN(c3ccc4oc(C(N)=O)cc4c3)CC1)C(=O)N2 (stereo not shown) [5-{4-[4-(5-cyano-2-oxo-2,3-dihydro-1H-indol-3-yl)butyl]-piperazin-1-yl}benzofuran-2-carboxamide]
2 | 2.7 nM | 18 nM | N#Cc1cc2c(CCCCN3CCN(c4ccc5oc(C(N)=O)cc5c4)CC3)c[nH]c2cc1O [5-{4-[4-(5-cyano-6-hydroxy-1H-indol-3-yl)butyl]piperazin-1-yl}-benzofuran-2-carboxamide]
